Experimental data reported in the NIST ThermoML archive (doi:10.1021/je0505164).
± gives the expanded uncertainty stated by the source.

Details: Liquid; for mass density: 298.15 K, 101.33 kPa; for Normal boiling temperature: Ebulliometric method (Recirculating still)

Row | mass density [kg/m3] | Normal boiling temperature [°C] | SMILES
1 | 785.1 ± 0.3 | 78.31 ± 0.2 | CCO [ethanol]
2 | 799.6 ± 0.3 | 97.06 ± 0.2 | CCCO [propan-1-ol]
3 | 780.8 ± 0.3 | 82.24 ± 0.2 | CC(C)O [propan-2-ol]
